The text below walks through data of US9518104B2, “Compositions and methods for treating multiple sclerosis” (Centre for Addiction and Mental Health, priority 2012, dated 2016).

The subject of one assay is EAE in rats. The following applies: direct application (Smith et al.); cited from earlier work.
The subject of the next assay is EAE. The note with it: Shijie et al. 2009; cited from earlier work.
The test system of the next assay is EAE mice. The note with it: EAE mice (Fazio et al. 2008); cited from earlier work.
The subject of another assay is GluR2-GAPDH interaction. The note with it: previously shown (PCT/CA2007/001539); cited from earlier work.
In the next assay the test system is cytokines. As to the kind of experiment: Bioplex, cytokine profiles in cultured spleenocytes re-stimulated with MOG35-55. The class given is in vivo, mice. The following applies: vs the other two groups. As for the experimental part: Cytokine measurement was performed by Bioplex Protein Array (Bio-Plex Pro™ Mouse Cytokine 23-plex Assay) from Bio-Rad as per manufacturer's instruction. EAE mice serum, culture supernatant of spleenocytes in different treatment groups and supernatant of brain infiltrated leukocyte culture were used for bioplex protein array in duplicates. The standard curves were optimized automatically by the software (Bioplex manager) and verified manually. The Bioplex manager software was used to calculate cytokine concentrations. Data is expressed as Mean±SEM.

The next assay deals with hippocampal neurons. The note with it: animal models of ischemic stroke; previously shown (PCT/CA2007/001539); cited from earlier work.
The target in another assay is T1, GAPDH (Rattus norvegicus, UniProt P04797).
T1 construct: Rat hippocampus was homogenized in 50 mM Tris-HCl (pH 7.5); from tissue; host or cells: rat hippocampus homogenate
T1 sequence (P04797 whole entry): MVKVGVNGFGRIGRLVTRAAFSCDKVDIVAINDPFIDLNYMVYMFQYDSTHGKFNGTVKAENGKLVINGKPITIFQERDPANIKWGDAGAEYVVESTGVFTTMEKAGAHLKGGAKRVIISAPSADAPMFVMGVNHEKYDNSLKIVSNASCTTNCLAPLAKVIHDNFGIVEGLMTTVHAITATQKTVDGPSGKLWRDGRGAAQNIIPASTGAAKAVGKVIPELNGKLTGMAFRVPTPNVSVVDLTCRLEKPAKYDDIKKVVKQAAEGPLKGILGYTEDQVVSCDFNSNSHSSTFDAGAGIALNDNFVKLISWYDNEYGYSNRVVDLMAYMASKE
As to the kind of experiment: Pull-down affinity assay of GluR2-GAPDH interaction. The class given is binding. The note with it: solubilized rat hippocampal tissue, approximately 100 μg GST-fusion protein. The method, then:
Desired DNA sequences of the GluR2 N-terminus were obtained by polymerase chain reaction. The DNA sequences were digested with BamHI and Xhol enzymes to create sticky ends and subsequently incorporated into GST-plasmids (pGEX4T3) through DNA ligation. Following ligation, transformation with DH5a competent cells was performed to amplify the plasmid content. Subsequently, the plasmids were extracted and subjected to sequence confirmation. Having the desired DNA sequences confirmed, the GST-fusion proteins were expressed through the transformation with another strain of competent cells (i.e. BL21). The GST-fusion proteins were then precipitated and purified through glutathione resin (from Genescript).
Rat hippocampus was homogenized in 50 mM Tris-HCl (pH 7.5), 150 mM NaCl, 1% NP-40, 0.5% sodium deoxycholate, 1 mM EDTA, 10% Triton X-100, 1 mM PMSF and protease inhibitor cocktail (Sigma, 5 microl per 100 mg tissue). The hippocampal tissue was further solubilized with 1% Triton X-100 and then centrifuged at 14,000 rpm at 4° C. for 15 mins The solubilized hippocampal tissue (approximately 1 milligram of protein) was incubated with glutathione resin (Genescript) and indicated GST-fusion proteins (approximately 100 μg) at 4° C. overnight and followed by an hour of incubation at room temperature. After the incubation, the samples were washed 4-6 times with 1 mL PBS contained 0.1% Triton X-100. […]

The next assay deals with activated T-cells. The note with it: Pitt et al.; cited from earlier work.
The test system of a further assay is inflammation. The note with it: EAE (Pitt et al.); cited from earlier work.
The subject of another assay is oligodendrocytes. The experiment in a line: CNPase- and CC1-labeled oligodendrocytes in EAE mouse spinal cord. The class given is in vivo. The following applies: EAE mice, dorsal regions of spinal cord; compared to sham. As for the experimental part: (§1) Frozen coronal sections of EAE mice spinal cord (10 μm) thickness were cut using a microtome cryostat system (Bright Instruments 5030). All sections were initially incubated in blocking solution (0.1 m PBS, 1% Triton X-100, 0.5% Tween 20, 2% skim milk) or serum-free protein block (Dako Cytomation) for 1 h at room temperature to reduce nonspecific background and then incubated with primary and secondary antibodies overnight at 4° C. The following primary antibodies were used: anti-Iba1 (1:200; Dako), anti-Neurofilament H (1:200), anti-CC1, anti-CNPase (1:200), and anti-NeuN (1:200). Fluorescent secondary antibodies conjugated to Alexa 488 or Rhodamine Red-X (1:200; Invitrogen) or Cy3 (1:100; Jackson ImmunoResearch Laboratories) were used for detection of primary antibodies.

Another assay has as its system Iba1+ cells. As to the kind of experiment: Iba1 immunolabeling of macrophages/microglia in EAE mouse spinal cord. The format is in vivo. The note with it: EAE mice; compared to sham. The method, then:
as §1
As MS is closely associated with inflammation and autoimmunity, the TAT-G-Gpep peptide was tested to determine if it affects microglial/macrophage recruitment.

A further assay has as its system neurofilament-H. As to the kind of experiment: Neurofilament-H immunostaining, axonal density in EAE mouse spinal cord. The class given is in vivo. The note with it: EAE mice spinal cord; compared to sham. The method, then:
as §1

For another assay, the system named is myelin. The experiment in a line: Luxol Fast Blue staining of myelin in EAE mouse spinal cord. The class given is in vivo. The note with it: EAE mice spinal cord; compared to sham. As for the experimental part: At day 30, mice were sacrificed by overdose anesthesia, and the spinal cord was dissected for co-immunoprecipitation analysis. For analysis of central nervous system infiltrates, brain and spinal cord tissues were collected and mononuclear cells were prepared by Percoll gradient centrifugation. For immunological analysis, splenocytes cells were dissected and cultured in vitro. For histological analysis, the same tissue samples were immediately fixed in 4% (wt/vol) paraformaldehyde. Frozen sections of spinal cord were stained with Luxol fast blue for analysis of […].

Where no end group is shown, it is not given here.

GluR2-GAPDH interaction, sequence (P04406 whole entry, the tested form may be a part): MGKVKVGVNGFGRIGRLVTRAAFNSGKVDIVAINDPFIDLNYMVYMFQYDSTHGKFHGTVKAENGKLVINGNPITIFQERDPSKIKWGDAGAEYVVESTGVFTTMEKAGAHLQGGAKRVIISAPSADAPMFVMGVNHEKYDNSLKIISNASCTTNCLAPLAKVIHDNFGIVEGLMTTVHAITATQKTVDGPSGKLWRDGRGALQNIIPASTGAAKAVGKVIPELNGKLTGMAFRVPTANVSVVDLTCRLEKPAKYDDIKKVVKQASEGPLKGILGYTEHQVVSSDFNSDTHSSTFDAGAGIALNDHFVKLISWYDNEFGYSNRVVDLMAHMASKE

For the compound `O=c1[nH]c2cc(C(F)(F)F)c(N3CCOCC3)cc2n(CP(=O)(O)O)c1=O` [MPQX], the “acute and chronic neurological effects of EAE” value with EAE in rats was “reduces the acute and chronic neurological effects of EAE”. Regarding `[N-]=[N+]=CC(=O)CC[C@H](N)C(=O)O` [DON, 6-diazo-5-oxo-L-norleucine], the “neurological effects of EAE” value in the assay with EAE is “attenuated”. Take `O=C(Nc1nc(C(F)(F)F)co1)C1c2ccccc2Oc2ccccc21` [RO0711401]: the motor coordination entry in the assay with EAE mice is recorded as “improves motor coordination”. For the compound “YYQWDKFAYLYDSDRGLSTLQAVLDSAAEKK (GluR2 NT1-3-2) [G-Gpep, interfering peptide, GluR2 NT1-3-2 (Y142-K172)]”, in the assay on GluR2-GAPDH interaction, the “disruption of GluR2-GAPDH interactions” value is “capable of disrupting GluR2-GAPDH interactions”. The “immunoreactivity of spleenocytes (most cytokines)” value in the assay with cytokines is recorded as “significantly suppressed”. Further, the “protection of neurons from ischemia-induced cell death” value in the assay on hippocampal neurons was “protecting neurons from ischemia-induced cell death”. Regarding `CC1(C)[C@@H](OC(=O)CCC(=O)O)CC[C@]2(C)[C@H]3C(=O)C=C4[C@@H]5C[C@@](C)(C(=O)O)CC[C@]5(C)CC[C@@]4(C)[C@]3(C)CC[C@@H]12` [carbenoxolone], the “neurological effects of EAE” value in the assay on EAE was “attenuated”. Consider “GST-Fragment 2: GST fusion protein of fragment 2, Asp153-Lys172 of GluR2 N-terminus, DSDRGLSTLQAVLDSAAEKK (SEQ ID NO:5) (also: GST fusion protein)”, for which the “precipitation (pull down) of GAPDH” value with GAPDH was “able to precipitate GAPDH”. In the case of `NS(=O)(=O)c1cccc2c1c([N+](=O)[O-])cc1nc(O)c(O)nc12` [NBQX], the “acute and chronic neurological effects of EAE” value in the assay on EAE in rats was “reduces the acute and chronic neurological effects of EAE”. Also, the “in vitro proliferation of activated T-cells” value in the assay with activated T-cells was “did not reduce”. Further, in the assay with inflammation, the amount of inflammation entry was “did not reduce”.

Take “GST alone: glutathione S-transferase alone, negative control”: the “precipitation (pull down) of GAPDH” value with GAPDH is recorded as “neither the GST alone nor the GST-fusion protein containing fragment 1 (Tyr142-Leu161 (SEQ ID NO:7)) sufficed to “pull down” GAPDH”. Consider “YGRKKRRQRRRAFDLSQYDLKWQVDYLKYDYGTASELRASA (G-Gpep-sc or G-Gpep-scrambled) [TAT-G-Gpep-sc, scrambled G-Gpep control peptide fused to TAT domain]”, for which the “number of CNPase- and CC1-labeled oligodendrocytes” value in the assay on oligodendrocytes is “significantly lower”. For the same compound, the “number of Iba1+ cells in the dorsal and ventral horns” value in the assay with Iba1+ cells was “significantly more macrophages/microglia”. Also, the “area occupied by neurofilament-H” value in the assay on neurofilament-H is listed as “significantly lower”. Moreover, the “demyelination (myelin in the ventral funiculus)” value in the assay with myelin is reported as “Significant demylenation”.
